Read-outs that look alike come from different tables or passages of the source.
Legend:
[1] = tested on: MDA-MB-231 human BC cells; assay: Orthotopic MDA-MB-231 breast cancer xenografts, prevention; type: in vivo, mice
CYP 2D6 = CYP 2D6 (Homo sapiens, UniProt P10635); conditions: 37° C., NADPH-regenerating solution
Description: (§1) PSA 95 was pre-incubated at 37° C. for 5 minutes with an NADPH-regenerating solution in 0.1 M potassium phosphate buffer (pH 7.4). The reaction was initiated by the addition of individual recombinant human CYP isoforms (25 μmol/ml) in a total volume of 1 ml and samples were maintained at 37° C. for various time periods. At each designated time-point, aliquots were extracted with acetonitrile, and subjected to HPLC analysis.

CYP 3A4 = CYP 3A4 (Homo sapiens, UniProt P08684); conditions: 37° C., NADPH-regenerating solution
Description: as §1

CYP 2C9 = CYP 2C9 (Homo sapiens, UniProt P11712); conditions: 37° C., NADPH-regenerating solution
Description: as §1

CYP 1A2 = CYP 1A2 (Homo sapiens, UniProt P05177); conditions: 37° C., NADPH-regenerating solution
Description: as §1

CYP 2C19 = CYP 2C19 (Homo sapiens, UniProt P33261); conditions: 37° C., NADPH-regenerating solution
Description: as §1

[2] = tested on: U87 glioblastoma cell line; assay: 24-hour growth inhibition of glioblastoma cells; type: cell-based; conditions: read-out: 24-h 1c50
[3] = Pharmacokinetics of PI-PEG and PI, i.p.; type: in vivo, mice; conditions: equimolar doses
Description: PI-PEG 7 and PI 1 were injected i.p. in mice at equimolar doses and at predetermined time points the animals were sacrificed and blood was collected through heart puncture. PI-PEG and PI were extracted by adding a 2-fold volume of acetonitrile. After centrifugation for 10 minutes at 5000×g, the supernatants were subjected to HPLC analysis.

A431 skin cancer cells = assay: Cellular uptake, intracellular level by HPLC; conditions: 1 hour incubation
Description: A431 skin cancer cells were seeded into 6-well culture plates (5×10^5 per well). After overnight incubation, the cells were incubated with 100 pM of each compound alone for 1 hour. After the media were removed and the monolayers were washed three times with PBS (1% BSA), the cells were collected in PBS.

[4] = tested on: active Ras in MIA PaCa-2 xenografts; assay: Ras-GTP pull down assay in xenograft lysates; type: in vivo, mice
Description: The inhibition of Ras by P-FTS 67 was further confirmed in vivo. The Ras-GTP pull down assay was used to test the capacity of P-FTS 67 to inhibit active Ras in fresh protein lysates from MIA PaCa-2 xenografts. Compared to controls, P-FTS 67, 50 and 100 mg/kg reduced RAS activation in xenografts by 62% and 70%, respectively (p<0.01, for both; FIG. 30A).

[5] = tested on: AsPC-1, CFPAC-1, Capan-2, Panc-1 and MIA PaCa-2; assay: Growth of human pancreatic cancer cell lines, 24 hours; type: cell-based; conditions: escalating concentrations, all cell lines
Description: Cell growth was determined in the human pancreatic cancer cell lines AsPC-1, CFPAC-1, Capan-2, Panc-1 and MIA PaCa-2 after treatment with escalating concentrations of P-FTS 67 for 24 hours.

[6] = tested on: Ras (Ras-GTP) in Panc-1 cells; assay: Ras-GTP pull down assay in cells; type: cell-based
From the text: In the following experiments it was examined whether the pancreatic cancer growth inhibitory effect of P-FTS 67 is associated with down regulation of Ras signaling. For this purpose, the Ras-GTP pull down assay was used.

MIA PaCa-2 cells = assay: MIA PaCa-2 pancreatic cancer xenografts; type: in vivo, mice; conditions: for reduction of tumor volume growth: day 25
Description: The in vivo chemotherapeutic potential of P-FTS 67 was assessed using a pancreatic cancer xenograft model. MIA PaCa-2 cells were injected subcutaneously into the flank areas of nude mice. When palpable tumors were observed, the mice received P-FTS 67, 50 or 100 mg/kg/d by oral gavage in corn oil or just corn oil (control) for 25 days. On day 25 of treatment, P-FTS 67, 50 mg/kg/d, and P-FTS 67, 100 mg/kg/d reduced the tumor volume growth by 62% and 65%, respectively (p <0.05; FIG. 27).

p-ERK1/2 = assay: Immunostaining of xenograft tissue sections, p-ERK1/2; type: in vivo, mice; conditions: MIA PaCa-2 xenograft tissue sections
[7] = Sub-chronic toxicity of P-FTS, 3 weeks oral gavage; type: in vivo, mice
Description: The toxicity of P-FTS in mice was further examined. Groups of 6 week-old female BALB/c mice (5 mice/group) were given by oral gavage once a day for 3 weeks P-FTS: 0, 75, 150, 250 and 350 mg/kg. […] The (sub-chronic) maximum tolerated dose of P-FTS 67 (3-week period of observation) was determined to be at least 350 mg/kg/d.

p-c-RAF = assay: Immunostaining of xenograft tissue sections, p-c-RAF; type: in vivo, mice; conditions: MIA PaCa-2 xenograft tissue sections
[8] = Gastrointestinal toxicity, gastric ulcers by H&E staining
[9] = tested on: Salmonella Typhimurium (TA98 and TA100); assay: Genotoxicity, reverse mutation with and without rat liver S9; conditions: TA98 and TA100, presence and absence of rat liver S9
SW480 colon cancer cells = assay: SW480 xenografts, prevention of colon cancer; type: in vivo, mice; conditions: 10 mg/kg/day oral gavage, 43 days, end of study
Description: Six-week-old female athymic nude mice, i.e. lacking a thymus gland and having no T-cells (Taconic Farms, Germantown, N.Y.; in =6/group) were treated by oral gavage of PTI 10 mg/kg/day, or vehicle (corn oil) for a total of 43 days. Five days later, 1.2×10^6 SW480 colon cancer cells suspended in 100 μl of phosphate buffered saline (PBS) were inoculated subcutaneously to each flank of the mice. Tumor size was monitored by measuring the length (L) and width (W) with a digital caliper and the volume was calculated according to the formula, L×W×(L+W/2)×0.56.

[10] = Pharmacokinetics of PTI, plasma levels after i.p. dose
[11] = Cardiotoxicity, histology of heart tissue sections; type: in vivo, mice; conditions: treated for about 1.5 months
From the text: Heart tissue sections from mice treated with PTI for about 1.5 months were examined histologically.

in vivo = conditions: wt (wild type) and nude, mouse, po
[12] = Maximum tolerated dose of PA-III; parameters: species or system mice; conditions: mouse, in vivo
Description: The ability of phospho-aspirin III (PA-III) 506 to prevent breast cancer (BC) was evaluated using MDA-MB-231 human BC cells xenografted into one of the mammary glands of nude mice (orthotopic xenografts). PA was administered orally, 120 mg/kg/d 1 week prior to inoculating the cells (the standard prevention protocol); acetylsalicylic acid (ASA) was given at an equimolar dose of 40 mg/kg/d. This was the highest dose of ASA that these mice could tolerate on a long-term basis. The dose of PA-III 506 represents <10% of its maximum tolerated dose (MTD>1,600 mg/kg), but was chosen so that a comparison between PA-III 506 and ASA was possible.

[13] = Levels of PA-III and metabolites in blood and xenografts by HPLC; type: in vivo; conditions: mice treated with PA-III 506
[14] = parameters: AUC in lung: unit not given beside the values; conditions: mouse, in vivo, inhaled or intranasal
[15] = mouse, in vivo, po, 100 mg/kg
[16] = tested on: A549 human lung cancer xenografts; assay: A549 sc xenografts, i.v. PS in nanocarrier vs sulindac; type: in vivo, mice; conditions: equimolar dose of sulindac 40 mg/kg
[17] = Pharmacokinetics of phosphosulindac amide, single oral dose; conditions: after single oral dose 100 mg/kg PSA 95
[18] = rat, in vivo
[19] = 120 mg/kg/d orally, 20 treated mice

Chain of CYP 1A2 (P05177 whole entry): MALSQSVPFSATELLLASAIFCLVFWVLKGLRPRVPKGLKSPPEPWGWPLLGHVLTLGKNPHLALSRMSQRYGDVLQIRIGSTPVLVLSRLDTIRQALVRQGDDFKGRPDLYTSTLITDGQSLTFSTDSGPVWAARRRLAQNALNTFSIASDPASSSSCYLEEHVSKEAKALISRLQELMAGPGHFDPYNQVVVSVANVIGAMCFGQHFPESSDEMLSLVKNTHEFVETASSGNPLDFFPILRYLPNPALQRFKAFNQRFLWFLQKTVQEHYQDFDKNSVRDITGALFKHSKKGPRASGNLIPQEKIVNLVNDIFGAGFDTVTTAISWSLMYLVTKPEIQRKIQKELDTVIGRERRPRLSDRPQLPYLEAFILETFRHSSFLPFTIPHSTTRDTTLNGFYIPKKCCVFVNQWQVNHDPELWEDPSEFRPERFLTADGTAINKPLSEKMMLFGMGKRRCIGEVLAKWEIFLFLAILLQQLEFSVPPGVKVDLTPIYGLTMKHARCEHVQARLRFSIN
Chain of CYP 2C9 (P11712 whole entry): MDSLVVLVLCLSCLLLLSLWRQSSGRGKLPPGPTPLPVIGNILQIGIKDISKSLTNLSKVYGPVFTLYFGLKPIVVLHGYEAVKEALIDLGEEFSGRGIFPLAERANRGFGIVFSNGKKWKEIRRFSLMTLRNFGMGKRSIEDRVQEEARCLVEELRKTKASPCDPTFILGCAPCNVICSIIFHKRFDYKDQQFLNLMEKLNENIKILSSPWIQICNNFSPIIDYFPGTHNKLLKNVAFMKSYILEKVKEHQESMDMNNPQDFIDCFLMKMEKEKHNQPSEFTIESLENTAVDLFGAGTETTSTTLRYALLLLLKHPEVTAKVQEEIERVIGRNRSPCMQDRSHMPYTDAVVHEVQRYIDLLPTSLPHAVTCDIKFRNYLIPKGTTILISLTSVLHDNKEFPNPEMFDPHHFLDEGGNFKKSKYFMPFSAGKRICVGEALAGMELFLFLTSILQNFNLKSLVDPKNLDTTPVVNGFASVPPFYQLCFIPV
Chain of CYP 3A4 (P08684 whole entry): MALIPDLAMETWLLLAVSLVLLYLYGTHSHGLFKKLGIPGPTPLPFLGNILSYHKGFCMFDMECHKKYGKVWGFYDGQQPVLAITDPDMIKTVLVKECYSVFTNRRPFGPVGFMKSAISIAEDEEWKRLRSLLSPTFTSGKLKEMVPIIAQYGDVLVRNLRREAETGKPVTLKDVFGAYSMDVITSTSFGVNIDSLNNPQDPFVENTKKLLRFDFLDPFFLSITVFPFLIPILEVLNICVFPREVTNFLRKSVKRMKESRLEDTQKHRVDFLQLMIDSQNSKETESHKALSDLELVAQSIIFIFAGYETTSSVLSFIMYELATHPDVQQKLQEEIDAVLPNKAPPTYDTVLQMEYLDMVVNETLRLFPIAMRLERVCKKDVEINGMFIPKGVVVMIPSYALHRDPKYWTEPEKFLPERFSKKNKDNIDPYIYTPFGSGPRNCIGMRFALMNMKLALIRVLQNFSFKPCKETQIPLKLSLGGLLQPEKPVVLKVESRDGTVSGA
Chain of CYP 2C19 (P33261 whole entry): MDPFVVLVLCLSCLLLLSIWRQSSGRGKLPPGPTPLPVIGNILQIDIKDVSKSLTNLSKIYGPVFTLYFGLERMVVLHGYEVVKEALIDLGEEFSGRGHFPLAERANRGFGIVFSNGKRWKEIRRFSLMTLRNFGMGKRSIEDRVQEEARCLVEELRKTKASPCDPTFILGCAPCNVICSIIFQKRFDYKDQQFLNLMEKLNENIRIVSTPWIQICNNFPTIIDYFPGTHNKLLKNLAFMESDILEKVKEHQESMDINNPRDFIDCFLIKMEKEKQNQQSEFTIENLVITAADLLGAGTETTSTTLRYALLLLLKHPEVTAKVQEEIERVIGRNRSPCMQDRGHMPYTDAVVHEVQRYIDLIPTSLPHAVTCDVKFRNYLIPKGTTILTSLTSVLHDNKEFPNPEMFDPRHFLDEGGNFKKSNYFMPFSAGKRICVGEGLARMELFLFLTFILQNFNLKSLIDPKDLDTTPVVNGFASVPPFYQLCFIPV
Chain of CYP 2D6 (P10635 whole entry): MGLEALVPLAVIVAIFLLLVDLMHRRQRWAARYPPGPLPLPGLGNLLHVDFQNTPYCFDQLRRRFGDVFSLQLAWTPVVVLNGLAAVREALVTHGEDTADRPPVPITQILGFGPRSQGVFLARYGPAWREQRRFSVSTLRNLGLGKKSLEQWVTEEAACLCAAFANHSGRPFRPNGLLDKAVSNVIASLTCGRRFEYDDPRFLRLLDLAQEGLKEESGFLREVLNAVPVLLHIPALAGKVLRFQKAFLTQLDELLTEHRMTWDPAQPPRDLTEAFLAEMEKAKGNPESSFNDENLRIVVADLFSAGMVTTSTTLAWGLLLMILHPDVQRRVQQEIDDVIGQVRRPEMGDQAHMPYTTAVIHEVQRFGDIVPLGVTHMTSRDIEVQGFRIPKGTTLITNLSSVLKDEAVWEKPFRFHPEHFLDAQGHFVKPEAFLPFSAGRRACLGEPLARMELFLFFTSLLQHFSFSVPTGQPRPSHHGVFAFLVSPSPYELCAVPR

CC(=O)Oc1ccccc1C(=O)O [ASA, acetylsalicylic acid]
effect on BC xenograft growth ([1]; 40 mg/kg/d): no effect
oxidation (conversion to 5-OH-PSA) by CYP 2D6 (CYP 2D6): cannot be oxidized
oxidation by CYP 3A4 (CYP 3A4): cannot be oxidized
oxidation by CYP 2C9 (CYP 2C9): cannot be oxidized
oxidation by CYP 1A2 (CYP 1A2): cannot be oxidized
oxidation (conversion to 5-OH-PSA) by CYP 2C19 (CYP 2C19): cannot be oxidized

CCOP(=O)(OCC)OCCCCOC(=O)C(C)c1ccc(CC(C)C)cc1 (stereo not drawn) [Compound 2, phospho-ibuprofen]
IC50 ([2]; 24 h): 98 µM
stability and circulation in blood [3]: rapidly hydrolyzed
level inside the cells (A431 skin cancer cells; 100 pM): 0.75 nM
increase over the other two compounds (A431 skin cancer cells; limit of detection 2.5 pmol): ≥ 300 fold

CCOP(=O)(OCC)OCCCCOC(=O)c1ccccc1SC/C=C(\C)CC/C=C(\C)CCC=C(C)C [Compound 67]
reduction of RAS activation in xenografts ([4]; 50 mg/kg): 62%
reduction of RAS activation in xenografts ([4]; 100 mg/kg): 70%
pancreatic cancer cell growth, % control [5]: decreases pancreatic cancer cell growth in a concentration-dependent manner
inhibition of active Ras (Ras-GTP) [6]: significantly inhibited
reduction of tumor volume growth (MIA PaCa-2 cells; 50 mg/kg/d oral gavage): 62%
reduction of tumor volume growth (MIA PaCa-2 cells; 100 mg/kg/d oral gavage): 65%
tolerability in the efficacy study (MIA PaCa-2 cells; 50 or 100 mg/kg/d oral gavage, 25 days): well tolerated
reduction of expression of p-ERK1/2 (p-ERK1/2): 71%
weight loss or other signs of toxicity ([7]; 75, 150, 250 and 350 mg/kg oral gavage once a day for 3 weeks): no weight loss or other signs of toxicity
(sub-chronic) maximum tolerated dose ([7]; oral gavage once a day, 3-week period of observation): at least 350 mg/kg/d
reduction of expression of p-c-RAF (p-c-RAF): 73%

CCOP(=O)(OCC)OCCc1ccc(OC(=O)Cc2c(C)n(C(=O)c3ccc(Cl)cc3)c3ccc(OC)cc23)cc1 [Compound 93]
gastric damage, H&E stained gastric tissue sections ([8]; FIG. 18A): not
reduction of ulcers compared to indomethacin ([8]; day 5, PTI 10 mg/kg/day): 60%
rats that developed ulcers ([8]; day 5, gavage 4 days, indomethacin 4.75 mg/kg/day, PTI 10 mg/kg/day): 40%
genotoxicity [9]: no genotoxicity
reduction of tumor growth (SW480 colon cancer cells): 85%
AUCtotal of PTI relative to indomethacin ([10]; FIG. 19, equimolar i.p. doses): about 3.5 times
time at which PTI became undetectable post administration ([10]; single i.p. dose 100 mg/kg PTI): 4 h
time of maximum concentration of PTI ([10]; single i.p. dose 100 mg/kg PTI): 2 h
heart histology vs healthy control mice [11]: no differences

CCOP(=O)(OCC)OCC(CNC(=O)CC1=C(C)/C(=C/c2ccc([S+](C)[O-])cc2)c2ccc(F)cc21)OP(=O)(OCC)OCC (stereo not drawn) [Compound 99, (Z)-tetraethyl 3-(2-(5-fluoro-2-methyl-1-(4-(methylsulfinyl)benzylidene)-1H-inden-3-yl)acetamido)propane-1,2-diyl diphosphate]
MTD at 1 week (in vivo): > 500 mg/kg/day

CCOP(=O)(OCC)OCCCCOC(=O)c1ccccc1OC(C)=O [PA-III 506, phospho-aspirin]
reduction of average tumor volume compared to controls ([1]; 120 mg/kg/d orally): 62%
treated mice that had no tumors [1, 19]: 20%
treated mice that had tumors <100 mm^3 [1, 19]: 30%
maximum tolerated dose (MTD) [12]: > 1,600 mg/kg
intact compound in plasma or xenografts [13]: No intact PA-III 506 in either plasma or xenografts was detected

CC1=C(CC(=O)O)c2cc(F)ccc2/C1=C\c1ccc(S(C)(=O)=O)cc1 [Sulindac sulfone, sulindac sulfone]
AUC in lung [14]: 57.5
Tmax in lung [14]: 8 h
Tmax in plasma [14]: 8 h
metabolite generated by PSA 95 [15]: no detectable

CC1=C(CC(=O)O)c2cc(F)ccc2/C1=C\c1ccc([S+](C)[O-])cc1 (stereo not drawn) [Sulindac, sulindac, reference compound]
IC50 ([2]; U87, 24-hour growth inhibition): ≥ 1000 µM
inhibition of growth of xenografts [16]: 32%
metabolite generated by PSA 95 [17]: no detectable

CC(C)Cc1ccc(C(C)C(=O)O)cc1 (stereo not drawn) [ibuprofen, reference compound]
IC50 ([2]; U87, 24-hour growth inhibition): ≥ 1000 µM
accumulation in A431 cells (A431 skin cancer cells; limit of detection 2.5 pmol): no significant accumulation

COc1ccc2c(c1)c(CC(=O)O)c(C)n2C(=O)c1ccc(Cl)cc1 [indomethacin, reference compound]
gastric damage, H&E stained gastric tissue sections [18]: caused gastric damage
Tmax ([10]; mouse, plasma, ip, 58 mg/kg): 1 h

CC(C)Cc1ccc(C(C)C(=O)OCCCCOP(=O)(O)O)cc1 (stereo not drawn) [phospho-ibuprofen phosphate 505]
accumulation in A431 cells (A431 skin cancer cells; limit of detection 2.5 pmol): no significant accumulation
